In patent publication US7547690B2, “Compounds for the treatment of Hepatitis C” (Bristol-Myers Squibb Company, priority 2007, dated 2009):
Read-outs that look alike come from different tables or passages of the source.

How the values were obtained:
HCV NS5B = biological target: T1, HCV NS5B (Hepatitis C virus genotype 1b, UniProt Q9WMX2); experiment: HCV NS5B RdRp enzyme assay (standard / modified); type: biochemical; conditions: standard or modified assay not specified
T1 construct: The protein was expressed with an 18 amino acid C-terminal truncation to enhance the solubility; made in house; host or cells: E. coli BL21(DE3)
In short: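 Genotype 1b NS5B, 18-aa C-terminal truncation, E. coli-expressed; polyA template with biotin-oligo-dT12 primer, 3H-UTP (0.29 μM UTP), pH 7.5 Hepes, 2% DMSO, 30 °C, SPA read. Standard: 28 nM enzyme, 6 nM template, 180 nM primer, 60 min. Modified: 1.75 nM enzyme, 0.36 nM template, 20 nM bead-precaptured primer, 4 h; IC50 from seven concentrations, four-parameter fit.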

HCV replicon cells = experiment: HCV replicon FRET / luciferase assay; type: cell-based
In short: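 HCV replicon cells (with or without Renilla luciferase reporter) incubated with titrated compounds at 37° C; cytotoxicity read by Alamar blue. Replicon activity then read by NS3 cleavage of EDANS/DABCYL FRET peptide (20 μM final, 340/490 nm kinetic) or by luciferase; background from highest control-inhibitor wells subtracted; EC50 = concentration giving 50% signal reduction.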

[1] = HCV RdRp genotype 1b, read-out: IC50
[2] = Hepatitis C virus, 50% reduction in FRET or luciferase activity in HCV replicon cells, read-out: EC50
[3] = 50% reduction in FRET or luciferase activity in HCV replicon cells, read-out: EC50

T1 sequence (Q9WMX2 2420-2992): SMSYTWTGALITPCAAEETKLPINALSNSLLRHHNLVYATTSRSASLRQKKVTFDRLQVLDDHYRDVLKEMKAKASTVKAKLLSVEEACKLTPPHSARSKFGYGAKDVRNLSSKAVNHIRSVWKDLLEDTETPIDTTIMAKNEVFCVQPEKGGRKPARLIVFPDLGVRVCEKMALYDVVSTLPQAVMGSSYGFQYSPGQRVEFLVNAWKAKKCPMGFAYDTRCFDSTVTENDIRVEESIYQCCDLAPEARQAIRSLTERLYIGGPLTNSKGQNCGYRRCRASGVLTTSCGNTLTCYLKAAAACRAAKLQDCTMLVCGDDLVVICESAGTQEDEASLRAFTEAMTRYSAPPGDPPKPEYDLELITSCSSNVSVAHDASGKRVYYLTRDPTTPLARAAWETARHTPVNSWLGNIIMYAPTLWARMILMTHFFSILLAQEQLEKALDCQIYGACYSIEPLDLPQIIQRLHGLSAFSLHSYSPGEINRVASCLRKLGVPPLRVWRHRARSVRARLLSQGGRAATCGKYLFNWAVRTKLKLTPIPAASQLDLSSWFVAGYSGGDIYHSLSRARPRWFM

Structure (SMILES) | IC50 (HCV NS5B; [1]) [µM] | EC50 (HCV replicon cells; [2]) [µM] | EC50 (HCV replicon cells; [3]) [µM] | IC50 (HCV NS5B; IC50, HCV RdRp genotype 1b) [µM] | EC50 (HCV replicon cells; Hepatitis C virus) [µM]
COc1ccc2c(c1)C1CC1(C(=O)N1CC3CN(C)CC(C1)N3C(C)=O)Cn1c-2c(C2CCCCC2)c2ccc(C(=O)NS(=O)(=O)N(C)C)cc21 (stereo not drawn) | 0.0024 to 0.5 | 0.0024 to 0.5 |  |  | 
COc1ccc2c(c1)C1CC1(C(=O)N1C3CC1CN(C)C3)Cn1c-2c(C2CCCCC2)c2ccc(C(=O)NS(=O)(=O)CC(F)F)cc21 (stereo not drawn) | 0.0024 to 0.5 | 0.0024 to 0.5 |  |  | 
COc1ccc2c(c1)C1CC1(C(=O)N1C3CC1CN(C)C3)Cn1c-2c(C2CCCCC2)c2ccc(C(=O)NS(=O)(=O)C3CCOCC3)cc21 (stereo not drawn) | 0.0024 to 0.5 | 0.0024 to 0.5 |  |  | 
CCN1C[C@H]2C[C@@H]1CN2C(=O)C12CC1c1cc(OC)ccc1-c1c(C3CCCCC3)c3ccc(C(=O)NS(=O)(=O)N(C)C)cc3n1C2 (stereo partly drawn) | 0.0024 to 0.5 | 0.0024 to 0.5 |  |  | 
COc1ccc2c(c1)C1CC1(C(=O)N1C3CC1CN(C)C3)Cn1c-2c(C2CCCCC2)c2ccc(C(=O)NS(=O)(=O)CC(C)(C)C)cc21 (stereo not drawn) | 0.0024 to 0.5 | 0.0024 to 0.5 |  |  | 
COc1ccc2c(c1)C1CC1(C(=O)N1C3COC[C@@H]1CN(C)C3)Cn1c-2c(C2CCCCC2)c2ccc(C(=O)NS(=O)(=O)C(C)C)cc21 (stereo partly drawn) | 0.0024 to 0.5 | 0.0024 to 0.5 |  |  | 
COc1ccc2c(c1)C1CC1(C(=O)N1C[C@@H]3C[C@H]1CN3C)Cn1c-2c(C2CCCCC2)c2ccc(C(=O)NS(=O)(=O)C3CC3)cc21 (stereo partly drawn) [drawing 51] | 0.0024 to 0.5 |  | > 0.5 |  | 
CCN1CC2CC(C1)N2C(=O)C12CC1c1cc(OC)ccc1-c1c(C3CCCCC3)c3ccc(C(=O)NS(=O)(=O)C(C)C)cc3n1C2 (stereo not drawn) | 0.0024 to 0.5 | 0.0024 to 0.5 |  |  | 
COc1ccc2c(c1)[C@@H]1C[C@]1(C(=O)N1C3CC1CN(C)C3)Cn1c-2c(C2CCCCC2)c2ccc(C(=O)NS(=O)(=O)C(C)C)cc21 | 0.0024 to 0.5 | 0.0024 to 0.5 |  |  | 
COc1ccc2c(c1)C1CC1(C(=O)N1C[C@@H]3C[C@H]1CN3C(=O)OC(C)(C)C)Cn1c-2c(C2CCCCC2)c2ccc(C(=O)NS(=O)(=O)C3CC3)cc21 (stereo partly drawn) | 0.0024 to 0.5 | 0.0024 to 0.5 |  |  | 
CCC(C)S(=O)(=O)NC(=O)c1ccc2c(C3CCCCC3)c3n(c2c1)CC1(C(=O)N2C4CC2CN(Cc2ccccc2)C4)CC1c1cc(OC)ccc1-3 (stereo not drawn) | 0.0024 to 0.5 | 0.0024 to 0.5 |  |  | 
COc1ccc2c(c1)C1CC1(C(=O)N1CCN3CCC1CC3)Cn1c-2c(C2CCCCC2)c2ccc(C(=O)NS(C)(=O)=O)cc21 (stereo not drawn) | 0.0024 to 0.5 | 0.0024 to 0.5 |  |  | 
COc1ccc2c(c1)C1CC1(C(=O)N1C3CCCC1CN(C)C3)Cn1c-2c(C2CCCCC2)c2ccc(C(=O)NS(=O)(=O)N3CCOCC3)cc21 (stereo not drawn) | 0.0024 to 0.5 | 0.0024 to 0.5 |  |  | 
COc1ccc2c(c1)C1CC1(C(=O)N1C3CC1CN(C)C3)Cn1c-2c(C2CCCCC2)c2ccc(C(=O)NS(=O)(=O)CCCF)cc21 (stereo not drawn) | 0.0024 to 0.5 | 0.0024 to 0.5 |  |  | 
CCN1C[C@H]2C[C@@H]1CN2C(=O)C12CC1c1cc(OC)ccc1-c1c(C3CCCCC3)c3ccc(C(=O)NS(=O)(=O)C4CC4)cc3n1C2 (stereo partly drawn) [drawing 44] | 0.0024 to 0.5 |  | 0.0024 to 0.5 |  | 
COc1ccc2c(c1)C1CC1(C(=O)N1C3CCCC1CN(C)C3)Cn1c-2c(C2CCCCC2)c2ccc(C(=O)NS(C)(=O)=O)cc21 (stereo not drawn) | 0.0024 to 0.5 | 0.0024 to 0.5 |  |  | 
COc1ccc2c(c1)C1CC1(C(=O)N1C[C@]3(C)CN(C)C[C@](C)(C1)C3O)Cn1c-2c(C2CCCCC2)c2ccc(C(=O)NS(=O)(=O)N(C)C)cc21 (stereo partly drawn) | 0.0024 to 0.5 | 0.0024 to 0.5 |  |  | 
COc1ccc2c(c1)C1CC1(C(=O)N1CC3CCC1CN3)Cn1c-2c(C2CCCCC2)c2ccc(C(=O)NS(=O)(=O)CCC(F)(F)F)cc21 (stereo not drawn) | 0.0024 to 0.5 | > 1 |  |  | 

Structure (SMILES) | IC50 (HCV NS5B; [1]) [µM] | EC50 (HCV replicon cells; [2]) [µM] | EC50 (HCV replicon cells; [3]) [µM] | IC50 (HCV NS5B; IC50, HCV RdRp genotype 1b) [µM] | EC50 (HCV replicon cells; Hepatitis C virus) [µM]
COc1ccc2c(c1)C1CC1(C(=O)N1C[C@H]3C[C@@H]1CN3CC(C)C)Cn1c-2c(C2CCCCC2)c2ccc(C(=O)NS(=O)(=O)N3CCC3)cc21 (stereo partly drawn) | 0.0024 to 0.5 | 0.0024 to 0.5 |  |  | 
COCCN1CC2CCC1CN2C(=O)[C@]12C[C@H]1c1cc(OC)ccc1-c1c(C3CCCCC3)c3ccc(C(=O)NS(=O)(=O)C(C)C)cc3n1C2 (stereo partly drawn) | 0.0024 to 0.5 | 0.0024 to 0.5 |  |  | 
CCC(C)S(=O)(=O)NC(=O)c1ccc2c(C3CCCCC3)c3n(c2c1)CC1(C(=O)N2C4COCC2COC4)CC1c1cc(OC)ccc1-3 (stereo not drawn) | 0.0024 to 0.5 | 0.0024 to 0.5 |  |  | 
COc1ccc2c(c1)C1CC1(C(=O)N1CCN3CCC1CC3)Cn1c-2c(C2CCCCC2)c2ccc(C(=O)NS(=O)(=O)N(C)C)cc21 (stereo not drawn) | 0.0024 to 0.5 | 0.0024 to 0.5 |  |  | 
COc1ccc2c(c1)[C@@H]1C[C@]1(C(=O)N1CC3CC1CN3C)Cn1c-2c(C2CCCCC2)c2ccc(C(=O)NS(=O)(=O)N(C)C)cc21 (stereo partly drawn) | < 0.02 | 0.0024 to 0.5 |  |  | 
COc1ccc2c(c1)C1CC1(C(=O)N1CC3COCC(C1)N3Cc1ccccc1)Cn1c-2c(C2CCCCC2)c2ccc(C(=O)NS(=O)(=O)N(C)C)cc21 (stereo not drawn) | 0.0024 to 0.5 | 0.0024 to 0.5 |  |  | 
COc1ccc2c(c1)C1CC1(C(=O)N1CC3COCC(C1)N3C)Cn1c-2c(C2CCCCC2)c2ccc(C(=O)NS(=O)(=O)N(C)C)cc21 (stereo not drawn) | 0.0024 to 0.5 | 0.0024 to 0.5 |  |  | 
COc1ccc2c(c1)C1CC1(C(=O)N1C3CN(C)CC1CN(C(C)C)C3)Cn1c-2c(C2CCCCC2)c2ccc(C(=O)NS(=O)(=O)N(C)C)cc21 (stereo not drawn) | 0.0024 to 0.5 | 0.0024 to 0.5 |  |  | 
COc1ccc2c(c1)[C@@H]1C[C@]1(C(=O)N1C3CN(C)CC1CN(C(C)=O)C3)Cn1c-2c(C2CCCCC2)c2ccc(C(=O)NS(=O)(=O)N(C)C)cc21 | 0.0024 to 0.5 | 0.0024 to 0.5 |  |  | 
COc1ccc2c(c1)C1CC1(C(=O)N1C[C@@H]3C[C@H]1CN3C)Cn1c-2c(C2CCCCC2)c2ccc(C(=O)NS(C)(=O)=O)cc21 (stereo partly drawn) | 0.0024 to 0.5 | 0.0024 to 0.5 |  |  | 
CCCS(=O)(=O)NC(=O)c1ccc2c(C3CCCCC3)c3n(c2c1)CC1(C(=O)N2C4CCCC2CN(C)C4)CC1c1cc(OC)ccc1-3 (stereo not drawn) | 0.0024 to 0.5 | 0.0024 to 0.5 |  |  | 
COc1ccc2c(c1)[C@@H]1C[C@]1(C(=O)N1C3CCC1CN(C)CC3)Cn1c-2c(C2CCCCC2)c2ccc(C(=O)NS(=O)(=O)C(C)C)cc21 (stereo partly drawn) | 0.0024 to 0.5 | 0.0024 to 0.5 |  |  | 
COc1ccc2c(c1)C1CC1(C(=O)N1C3COCC1CN(C(C)C)C3)Cn1c-2c(C2CCCCC2)c2ccc(C(=O)NS(=O)(=O)N(C)C)cc21 (stereo not drawn) | 0.0024 to 0.5 | 0.0024 to 0.5 |  |  | 
COc1ccc2c(c1)C1CC1(C(=O)N1C3CC1CN(C)C3)Cn1c-2c(C2CCCCC2)c2ccc(C(=O)NS(=O)(=O)C(C)C)cc21 (stereo not drawn) | 0.0024 to 0.5 | 0.0024 to 0.5 |  |  | 
COc1ccc2c(c1)C1CC1(C(=O)N1CC3CCC1CN3)Cn1c-2c(C2CCCCC2)c2ccc(C(=O)NS(=O)(=O)C3CCC3)cc21 (stereo not drawn) | 0.0024 to 0.5 | 0.0024 to 0.5 |  |  | 
COc1ccc2c(c1)C1CC1(C(=O)N1CC3CC(C1)c1cccc(=O)n1C3)Cn1c-2c(C2CCCCC2)c2ccc(C(=O)NS(=O)(=O)N(C)C)cc21 (stereo not drawn) | 0.0024 to 0.5 | 0.0024 to 0.5 |  |  | 
COc1ccc2c(c1)C1CC1(C(=O)N1CCN3CCC1CC3)Cn1c-2c(C2CCCCC2)c2ccc(C(=O)NS(=O)(=O)N3CCC3)cc21 (stereo not drawn) | 0.0024 to 0.5 | 0.0024 to 0.5 |  |  | 
COc1ccc2c(c1)[C@@H]1C[C@]1(C(=O)N1C3CCC1C1CCC3N1C)Cn1c-2c(C2CCCCC2)c2ccc(C(=O)NS(=O)(=O)N(C)C)cc21 [drawing 160] |  |  |  | 0.0024 to 0.5 | 0.0024 to 0.5
